row,SMILES,melting point [°C]
1,CCc1c(N)c(C(N)=O)nn1CC1CC1,143 to 145
2,CCOC(=O)c1c(N)c2cccnc2n(C2CCCCC2)c1=O,172 to 175
3,Cc1ccc2c(c1)N=C(N1CCN(C)CC1)c1c(sc3ccccc13)N2,184 to 186
4,CCCN(CC)C(C)CN1CCc2c(c(=O)oc3cc(OC)c(OC)cc23)C1 (configuration not stated),93 to 96
5,COC(=O)c1cc(F)c(O)nc1Nc1ccc(F)cc1F,222 to 223
6,Cc1ccccc1NC1=CCC(C)n2c1ncc(C(=O)O)c2=O (configuration not stated),157 to 159
7,CCN1CCN(c2ccc(CC3=C(C)C(=O)c4ccccc4C3=O)cc2)CC1,81 to 82
8,COc1ccc(CC(C)(N)C(=O)O)cc1OC (configuration not stated),244 to 246
9,COc1cc(NCCCO)c([N+](=O)[O-])cc1O,144
10,C=CCOc1cc(NC(C)=O)c(Cl)cc1C(=O)OC,110 to 112
11,NC[C@H]1CCc2[nH]c3ccc(F)cc3c2C1,121 to 123
12,COc1cc(OCCSC)ccc1-c1nc2ncccc2[nH]1,197 to 199
13,O=C(NC1CCCCC1)N(Cc1ccc(Cl)cc1)C1CCCC1,99 to 101
14,CCCCCCCCCCCCCCCCSCC1(CS(=O)(=O)CCCI)CCCO1 (configuration not stated),36 to 37
15,CCNC(=O)n1nc(Oc2ccc([N+](=O)[O-])c(C)c2)cc1C,67 to 69
16,CCN(CC)c1ccc(S(=O)(=O)N2CCCCC2=O)cc1,118 to 120
17,Nc1cc(Cl)c(Cl)c(Br)c1N,128 to 129
18,Cc1nc2c(O)cc(C(=O)N(C)C)cc2n1C,248
19,O=C(Nc1ccccc1)C1=NOCCS1(=O)=O,206 to 207
20,Nc1ccc2c(c1)CCC1CC(=O)NN=C21 (configuration not stated),290 to 291
21,COC(=O)Cc1c(Cl)ncnc1OC,64
22,CSC(Nc1cc(C(F)(F)F)cc(C(F)(F)F)c1)=C(C#N)S(C)(=O)=O,129 to 131
23,COC(=O)c1c(N)n(C)c2ccccc12,192 to 196
24,O=Cc1cc(O)c(O)c(C=O)c1CCCCC(=O)O,148 to 152

row,SMILES,melting point [°C]
1,CCOC(=O)C(C(=O)N(C)C)=C(OC)c1ccc(Cl)cc1Cl,88 to 92
2,CCCCc1nc(C(F)(F)CCC)nn1Cc1ccc(-c2ccccc2-c2nnn[nH]2)cc1,165 to 168
3,c1ccc(Cc2nc3cnc4ccccc4c3s2)cc1,111 to 113
4,OC12CC3CC(CC(C3)C1=C1C3CC4CC(C3)CC1C4)C2,212 to 213
5,CCC1=C(C)CN(C(=O)NCC2CCOc3cc(OC)c(S(=O)(=O)NC(=S)NC(C)C)cc32)C1=O (configuration not stated),153
6,CN1CC2c3cccn3Cc3ccccc3N2C(=O)C1=O (configuration not stated),178 to 179
7,COC(=O)C(C)N(C(=O)CCl)c1c(Cl)cccc1Cl (configuration not stated),82 to 85
8,O=[N+]([O-])c1cc(Cl)c(OCCCO)c([N+](=O)[O-])c1OCCCO,90
9,COc1c(C)c(C(=O)c2ccc3c(c2)c(=O)n(CC(=O)N(C)C)c(=O)n3C)n2ccccc12,276
10,O=C(/C=C/c1ccc2c(/C=C/C(=O)N3CCCC3)c[nH]c2c1)N1CCCC1,268 to 270
11,CCCCCCNc1nc[nH]c2nccc1-2,147 to 148
12,Cc1cc(CCCOc2ccc(-c3noc(C(F)(F)F)n3)cc2C)on1,69 to 70
13,CCc1cc2c(s1)-n1c(C3CCCCC3)nnc1C(N)N=C2c1ccccc1Cl (configuration not stated),175 to 176
14,COc1cc(/C=C/C(=O)CC(=O)CC(C)(C)C)ccc1O,130 to 132
15,COc1ccc(OC2c3cc(C#N)ccc3OC(C)(C)C2O)nn1 (configuration not stated),224 to 227
16,C=Cc1c(N)cc(-c2ccc(Cl)c(OC)c2F)nc1C(=O)O,209 to 211
17,O=CN1CCSc2ccccc2C1,84 to 87
18,CC(=O)NC(C)COC1CCC(c2cc3ccc(OCC4CC4)cc3o2)CC1 (configuration not stated),104 to 105
19,CC(=O)N1CCC(NC(=O)Nc2ccc(F)cc2)CC1,146 to 148
20,COC(C)c1ccc(C=C(C)c2ccc3c(c2)C(C)(C)CCC3(C)C)cc1 (configuration not stated),88 to 89
21,COc1ccc2c(c1)c1c(n2C)CCCC1=O,150 to 151
22,C=CCn1c(Nc2cc(C(F)(F)F)ccc2C(F)(F)F)nc(C(F)(F)F)cc1=O,116 to 118
23,Nc1ccc(C23CC2C(=O)NC3=O)cc1 (configuration not stated),183 to 185

# Results, then the compound that gave them:
row,melting point [°C],SMILES
1,259 to 260,N#Cc1c(-c2cccc(N)c2)cc(-c2ccccc2O)nc1NC(=O)c1ccc(Cl)s1
2,85 to 88,Cc1c2n(c3ccccc13)C(=O)C(CO)(Cc1ncn(C(c3ccccc3)(c3ccccc3)c3ccccc3)c1C)CC2 (configuration not stated)
3,138,CC(C)(Oc1ccc(CC(=O)Nc2cc(Cl)cc(Cl)c2)cc1)C(=O)O
4,> 250,CS(=O)(=O)Nc1cc2oc(C(=O)O)cc(=O)c2cc1Oc1ccccc1
5,101 to 103,CCOC(=O)C(C1c2ccccc2C=Cc2ccccc21)[N+](=O)[O-] (configuration not stated)
6,249 to 251,O=C1CCC(c2ccc3c(c2)CC(NC(=O)Nc2ccccc2)C3)=NN1 (configuration not stated)
7,169 to 171,CCOC(=O)COc1ccc(-c2cc(O)c(SCCc3ccccc3)c(=O)o2)cc1
8,165 to 167,CCc1cc(C(=O)c2ccccc2Cl)c(-n2cnnc2CNS(=O)(=O)c2ccc3ccccc3c2)s1
9,226 to 227,O=C(Nc1ccncc1)c1cccc(-c2ccc3c(c2)C(Oc2ccc(Cl)cc2Cl)CC3)c1 (configuration not stated)
10,208 to 209,O=C(Nc1cccnc1)N1CCN(c2ccnc(-c3cccc(F)c3F)n2)CC1
11,70.2 to 71.6,CS(=O)(=O)c1ccc(-c2nn(CCCc3ccccc3)c(=O)cc2-c2ccc(Cl)cc2)cc1
12,96 to 97,CCOc1cccc(S(=O)(=O)c2ccc(C)nc2Nc2c(C)cc(C)cc2C)c1
13,120 to 121,CC(C)c1ccc(N(Cc2ccc(OCc3ccccc3)cc2)C(=O)C2CCCc3ccccc32)cc1 (configuration not stated)
14,256,O=C(c1ccc(Cl)cc1)c1ccc2[nH]c(=O)nc(-c3cccc(Cl)c3)c2c1
15,234 to 239,Cn1c(=O)c(-c2ccc(Cl)cc2Cl)cc2c3cc(-c4nc(CC(=O)O)cs4)ccc3n(C)c21
16,196 to 198,CCOc1cc2ncc(C#N)c(Nc3ccc(F)c(Cl)c3)c2cc1NC(=O)C=CCN(C)C
17,175 to 177,O=S(=O)(c1cccc2ccccc12)c1n[nH]c2ccc(OCC3CCNCC3)cc12
18,345,NS(=O)(=O)c1cccc(NC(=O)c2cnn3ccc(-c4ccc(Cl)cc4)nc23)c1
19,144 to 152,COc1cc2c(Cl)c(C(=O)Cl)sc2cc1OCc1ccccc1
20,68 to 70,COc1cccc(/C=C(/C(=O)O)c2cc(OC)c(OC)c(OC)c2)c1
21,144 to 145,NCCCN1c2ccccc2N=C(c2ccccc2F)c2ccccc21
22,148,CCOC(=O)c1ccc(-c2ccc(Cl)cc2)[nH]1
23,207 to 208,Cc1c(S(=O)(=O)Nc2ccc(-c3ncco3)cc2S(C)(=O)=O)sc2ccc(F)cc12
24,101 to 102,OCc1cccc2nc(-c3ccccc3)sc12
25,169 to 171,CCOC(=O)c1nc2ccccc2n1[C@@H]1CC(C)(C)Oc2ccc(C#N)cc21

# Reference: a melting point compilation (Tetko et al.; mined from patent text by program, amines drawn as free bases though some values may be those of a salt)
